# Test results taken from paper PMC3211141 (Anesthesiology, 2011).
# Like-named read-outs stand apart in the source and are kept apart here.
# Legend:
# wild-type mice = assay: Electroencephalogram recording of bupivacaine-induced seizures, wild type mice; type: in vivo; conditions: control (wild type) mice, two lower bupivacaine doses, n=6
# [1] = tested on: TASK-1−/−:TASK-3−/− double knockout mice; conditions: for EC50 for induction of seizures / seizure duration (typical): iv
# TASK−/− mice = type: in vivo; conditions: two lower bupivacaine doses, n=6
# wild-type C57BL/6 mice = conditions: for seizure incidence (N=seizure/total) / seizure incidence (% of mice) / seizure duration (typical) / EC50 for induction of seizures: iv; for EC50 for induction of seizures: wild type mice, quantal dose-response
# [2] = tested on: homomeric and heteromeric TASK channels; assay: Whole-cell recording, statements across all tested TASK channel constructs; type: cell-based
# [3] = molecular target: TASK-1/TASK-3 heterodimeric channels (Rattus norvegicus, UniProt O54912+Q9ES08); type: cell-based; conditions: exemplar cell
# [4] = C57BL/6 background (TASK-1−/−:TASK-3−/− double knockout), mouse, in vivo
# [5] = TASK−/− mice, quantal dose-response
# [6] = C57BL/6, mouse, in vivo, 2.5 mg/kg
# [7] = C57BL/6, mouse, in vivo, 3.75 mg/kg
# [8] = C57BL/6, mouse, in vivo, 5 mg/kg
# [9] = C57BL/6, mouse, in vivo, 6.25 mg/kg
# [10] = C57BL/6, mouse, in vivo, 7.5 mg/kg
# [11] = C57BL/6, mouse, in vivo, 10 mg/kg
# TASK-1/TASK-3 heterodimeric channels, sequence (O54912 whole entry): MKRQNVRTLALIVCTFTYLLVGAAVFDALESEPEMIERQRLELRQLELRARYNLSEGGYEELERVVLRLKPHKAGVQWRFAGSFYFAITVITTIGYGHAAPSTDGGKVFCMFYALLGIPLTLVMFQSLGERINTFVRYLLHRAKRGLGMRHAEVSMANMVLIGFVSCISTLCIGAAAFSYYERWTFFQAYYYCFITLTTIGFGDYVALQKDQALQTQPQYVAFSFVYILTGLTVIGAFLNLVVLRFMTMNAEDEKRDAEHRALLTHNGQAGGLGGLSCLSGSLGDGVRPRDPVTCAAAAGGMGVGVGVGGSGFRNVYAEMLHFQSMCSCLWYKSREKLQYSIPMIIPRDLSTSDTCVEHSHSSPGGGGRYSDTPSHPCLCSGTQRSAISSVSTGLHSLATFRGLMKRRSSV
# TASK-1/TASK-3 heterodimeric channels, sequence (Q9ES08 whole entry): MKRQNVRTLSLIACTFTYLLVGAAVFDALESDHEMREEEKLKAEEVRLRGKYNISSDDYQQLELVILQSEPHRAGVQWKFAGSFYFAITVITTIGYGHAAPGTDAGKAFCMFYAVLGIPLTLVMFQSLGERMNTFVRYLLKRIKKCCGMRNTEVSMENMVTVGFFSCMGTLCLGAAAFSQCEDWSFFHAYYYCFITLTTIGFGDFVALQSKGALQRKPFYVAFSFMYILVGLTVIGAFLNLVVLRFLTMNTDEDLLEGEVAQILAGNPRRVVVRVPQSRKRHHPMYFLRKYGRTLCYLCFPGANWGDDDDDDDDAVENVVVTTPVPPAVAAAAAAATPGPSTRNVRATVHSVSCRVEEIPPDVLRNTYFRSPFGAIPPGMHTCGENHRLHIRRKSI
Compound,"EC50 for induction of seizures [1, 5]",seizure incidence (N=seizure/total) (wild-type C57BL/6 mice; [6]),seizure incidence (N=seizure/total) (wild-type C57BL/6 mice; [8]),seizure incidence (N=seizure/total) (wild-type C57BL/6 mice; [9]),seizure incidence (N=seizure/total) (wild-type C57BL/6 mice; [10]),EC50 for induction of seizures (wild-type C57BL/6 mice),"seizure duration (typical) [1, 4] [s]","seizure duration (typical) (wild-type C57BL/6 mice; C57BL/6, mouse, in vivo) [s]",seizure incidence (N=seizure/total) (wild-type C57BL/6 mice; [11]),other results
CCCCN1CCCCC1C(=O)Nc1c(C)cccc1C (centres unmarked) [bupivacaine],4.5 ± 0.1 mg/kg,1/14,14/14,12/12,4/4,3.4 ± 0.1 mg/kg,,,,"electroencephalogram peak frequency during seizures (wild-type mice): 3.4 ± 0.4 Hz; fold more potent for induction of seizures than ropivacaine [1, 4]: ~ 1.4 fold; electroencephalogram peak frequency during seizures (TASK−/− mice): ~ 4.4 ± 0.2 Hz; fold more potent for induction of seizures than ropivacaine (wild-type C57BL/6 mice; C57BL/6, mouse, in vivo): ~ 1.4 fold; seizure incidence (% of mice) (wild-type C57BL/6 mice; [7]): ~ 71%; seizure duration (typical) (wild-type C57BL/6 mice; mouse, in vivo): significantly longer in duration; fold more potent than lidocaine for TASK channel inhibition [2]: 3.1- to 4.4 fold; fold more potent than ropivacaine for TASK channel inhibition ([2]; across TASK channels): 1.4- to 1.7 fold"
CCN(CC)CC(=O)Nc1c(C)cccc1C [lidocaine],,,0/15,,,,< 25,< 25,4/15,"EC50 for induction of seizures ([1]; mouse, in vivo): 17.3 ± 1.0 mg/kg; seizure incidence (N=seizure/total) (wild-type C57BL/6 mice; C57BL/6, mouse, in vivo, 15 mg/kg): 10/15; seizure incidence (N=seizure/total) (wild-type C57BL/6 mice; C57BL/6, mouse, in vivo, 17.5 mg/kg): 13/15"
CCCN1CCCC[C@H]1C(=O)Nc1c(C)cccc1C [ropivacaine],6.0 ± 0.2 mg/kg,0/14,10/14,14/14,11/11,4.7 ± 0.1 mg/kg,< 150,< 150,3/3,"seizure incidence (N=seizure/total) (wild-type C57BL/6 mice; [7]): 0/14; seizure incidence (% of mice) (wild-type C57BL/6 mice; [8]): ~ 72%; seizure incidence (N=seizure/total) (wild-type C57BL/6 mice; C57BL/6, mouse, in vivo, 8.75 mg/kg): 9/9"
picrotoxin,~ 1.0 mg/kg,,,,,~ 1.0 mg/kg,,,,"effect on peak TASK-1/TASK-3 current ([3]; 100 μM): no discernible effect; decrease in peak TASK-1/TASK-3 current ([3]; 300 μM): < 10%; decrease in current amplitude (averaged, non-significant) ([2]; all tested TASK channel constructs, 50, 100 & 300 μM): ≤ 13%"
